Values joined by “and” are separate entries in the source; they are usually repeats but may differ in a detail not shown here. Equal entries are not always repeated. Inconclusive results and toxic doses are left out.
Tested on: P388 leukemia ip, CD2F1 mice, survival T/C
Test: NCI In Vivo Anticancer Drug Screen. Data for tumor model P388 Leukemia (intraperitoneal) in CD2F1 (CDF1) mice
Settings: endpoint: median survival time, higher = longer survival
Outline: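 Mice carrying the transplanted tumor received test compound or vehicle. Survival was recorded in each group, and the value is the treated-group measurement divided by that of the vehicle-treated control group.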

[1] = dose: 50.0 mg/kg/injection, schedule: Q01DX005 (ip), vehicle: saline with Tween-80
[2] = dose: 200.0 mg/kg/injection, schedule: Q01DX005 (ip), vehicle: saline with Tween-80
[3] = dose: 50.0 mg/kg/injection, schedule: Q01DX005 (ip), vehicle: Klucel (hydroxypropylcellulose) (HPC)
[4] = dose: 100.0 mg/kg/injection, schedule: Q01DX005 (ip), vehicle: Klucel (hydroxypropylcellulose) (HPC)
[5] = dose: 200.0 mg/kg/injection, schedule: Q01DX005 (ip), vehicle: Klucel (hydroxypropylcellulose) (HPC)
[6] = dose: 6.25 mg/kg/injection, schedule: Q01DX009 (ip), vehicle: saline
[7] = dose: 12.5 mg/kg/injection, schedule: Q01DX009 (ip), vehicle: saline
[8] = dose: 60.0 mg/kg/injection, schedule: Q01DX005 (ip), vehicle: saline with Tween-80
[9] = dose: 120.0 mg/kg/injection, schedule: Q01DX005 (ip), vehicle: saline with Tween-80
[10] = dose: 240.0 mg/kg/injection, schedule: Q01DX005 (ip), vehicle: saline with Tween-80
[11] = dose: 50.0 mg/kg/injection, schedule: Q01DX009 (ip), vehicle: saline
[12] = dose: 50.0 mg/kg/injection, schedule: Q04DX002 (ip), vehicle: saline with Tween-80
[13] = dose: 100.0 mg/kg/injection, schedule: Q04DX002 (ip), vehicle: saline with Tween-80
[14] = dose: 200.0 mg/kg/injection, schedule: Q04DX002 (ip), vehicle: saline with Tween-80
[15] = dose: 100.0 mg/kg/injection, schedule: Q01DX005 (ip), vehicle: saline with Tween-80
[16] = dose: 12.5 mg/kg/injection, schedule: Q01DX009 (ip), vehicle: Klucel (hydroxypropylcellulose) (HPC)
[17] = dose: 25.0 mg/kg/injection, schedule: Q01DX009 (ip), vehicle: Klucel (hydroxypropylcellulose) (HPC)
[18] = dose: 50.0 mg/kg/injection, schedule: Q01DX009 (ip), vehicle: Klucel (hydroxypropylcellulose) (HPC)
[19] = dose: 100.0 mg/kg/injection, schedule: Q01DX009 (ip), vehicle: Klucel (hydroxypropylcellulose) (HPC)
[20] = dose: 50.0 mg/kg/injection, schedule: Q01DX009 (ip), vehicle: saline with Tween-80
[21] = dose: 100.0 mg/kg/injection, schedule: Q01DX009 (ip), vehicle: saline with Tween-80
[22] = dose: 100.0 mg/kg/injection, schedule: Q01DX009 (ip), vehicle: saline
[23] = dose: 200.0 mg/kg/injection, schedule: Q01DX009 (ip), vehicle: saline
[24] = dose: 200.0 mg/kg/injection, schedule: Q01DX009 (ip), vehicle: saline with Tween-80

With `Cc1ccc(S(=O)(=O)N/N=C/c2ccc(Cl)cc2)cc1` the T/C (dose: 12.5 mg/kg/injection, schedule: Q01DX005 (ip), vehicle: saline with Tween-80) was 102 % of control, the T/C (dose: 25.0 mg/kg/injection, schedule: Q01DX005 (ip), vehicle: saline with Tween-80) was 104 % of control and 108 % of control and the T/C [1] was 100 % of control and 106 % of control and 107 % of control. The T/C [2] was 121 % of control.

`Cc1ccc(C(=O)c2cc3c([nH]c4ccccc43)c(C)c2C(=O)O)cc1` was tested, and the T/C [3] was 103 % of control, the T/C [4] was 92 % of control and the T/C [5] was 100 % of control.

In the case of `NC(CSCCc1ccncc1)C(=O)O` (configuration not stated), the T/C [6] is reported as 103 % of control, the T/C [7] is reported as 105 % of control and the T/C (dose: 25.0 mg/kg/injection, schedule: Q01DX009 (ip), vehicle: saline) is reported as 96 % of control.

In the case of `CN(c1ccccc1)c1cc2c(cc1[N+](=O)[O-])no[n+]2[O-]`, the T/C (dose: 7.5 mg/kg/injection, schedule: Q01DX009 (ip), vehicle: saline) is reported as 100 % of control and 86 % of control and 97 % of control, the T/C (dose: 15.0 mg/kg/injection, schedule: Q01DX009 (ip), vehicle: saline) is reported as 107 % of control and 94 % of control and the T/C (dose: 30.0 mg/kg/injection, schedule: Q01DX009 (ip), vehicle: saline) is reported as 105 % of control and 95 % of control. The T/C (dose: 60.0 mg/kg/injection, schedule: Q01DX009 (ip), vehicle: saline) was 100 % of control and 101 % of control and 92 % of control.

In the case of `O=C(CCCCCCCCC(=O)NO)NO`, the T/C [8] is reported as 96 % of control, the T/C [9] is reported as 100 % of control and the T/C [10] is reported as 100 % of control.

`CS(=O)(=O)OCCN(CCOS(C)(=O)=O)c1ccc(C=Nc2ccc(-c3csc(Cc4ccccc4)n3)cc2)cc1` was tested, and the T/C [6] was 115 % of control, the T/C [7] was 110 % of control and the T/C (dose: 12.5 mg/kg/injection, schedule: Q01DX009 (ip), vehicle: suspension in saline) was 163 % of control. For the same molecule, the T/C (dose: 25.0 mg/kg/injection, schedule: Q01DX009 (ip), vehicle: suspension in saline) was 164 % of control, the T/C [11] was 153 % of control and the T/C (dose: 50.0 mg/kg/injection, schedule: Q01DX009 (ip), vehicle: suspension in saline) was 174 % of control.

`CCOC(=O)C(CC)c1ccncc1C` (configuration not stated) was tested, and the T/C (dose: 25.0 mg/kg/injection, schedule: Q04DX002 (ip), vehicle: saline with Tween-80) was 106 % of control, the T/C [12] was 114 % of control and the T/C [13] was 118 % of control. The T/C [14] was 110 % of control.

With `CNc1nc(=S)nc(-c2ccccc2)s1` the T/C [1] was 100 % of control, the T/C [15] was 106 % of control and the T/C [2] was 92 % of control.

In the case of `O=C(Nc1ccc(Cc2ccc(NC(=O)C(c3ccccc3)c3ccccc3)cc2)cc1)C(c1ccccc1)c1ccccc1`, the T/C [1] is reported as 86 % of control, the T/C [15] is reported as 95 % of control and the T/C [2] is reported as 92 % of control.

For `C[C@]12CC[C@@H]3c4cc(N)c(O)cc4CC[C@H]3[C@@H]1CC[C@@H]2O`, the T/C [1] was 100 % of control, the T/C [15] was 103 % of control and the T/C [2] was 100 % of control.

With `O=C(Nc1ccc(NC(=O)c2ccncc2)cc1)c1ccncc1` the T/C [1] was 97 % of control, the T/C [15] was 93 % of control and the T/C [2] was 97 % of control.

`CC#CC#C/C=C1/C=CC2(CCCCO2)O1` (configuration not stated) was tested, and the T/C [16] was 100 % of control, the T/C [17] was 101 % of control and the T/C [18] was 107 % of control. The T/C [19] was 104 % of control.

For `Cc1cccc(C(=O)OCCBr)c1`, the T/C (dose: 18.75 mg/kg/injection, schedule: Q01DX009 (ip), vehicle: saline sonified) was 104 % of control, the T/C (dose: 37.5 mg/kg/injection, schedule: Q01DX009 (ip), vehicle: saline sonified) was 109 % of control and the T/C (dose: 49.5 mg/kg/injection, schedule: Q01DX009 (ip), vehicle: saline sonified) was 109 % of control. For the same molecule, the T/C (dose: 75.0 mg/kg/injection, schedule: Q01DX009 (ip), vehicle: saline sonified) was 104 % of control and the T/C (dose: 112.5 mg/kg/injection, schedule: Q01DX009 (ip), vehicle: saline sonified) was 104 % of control.

In the case of `CCCCCCCC1SCC(=O)N1c1nncs1` (configuration not stated), the T/C [8] is reported as 94 % of control, the T/C [9] is reported as 94 % of control and the T/C [10] is reported as 91 % of control.

For `c1ccc(N=C2CCCCC2)cc1`, the T/C (dose: 100.0 mg/kg/injection, schedule: Q01DX001 (ip), vehicle: other) was 98 % of control, the T/C (dose: 200.0 mg/kg/injection, schedule: Q01DX001 (ip), vehicle: other) was 97 % of control and the T/C (dose: 400.0 mg/kg/injection, schedule: Q01DX001 (ip), vehicle: other) was 106 % of control. The T/C (dose: 600.0 mg/kg/injection, schedule: Q01DX001 (ip), vehicle: other) was 101 % of control.

For `CCC1=C(C)CC(CC(=O)OC)C1=O` (configuration not stated), the T/C (dose: 50.0 mg/kg/injection, schedule: Q01DX005 (ip), vehicle: saline) was 95 % of control, the T/C (dose: 100.0 mg/kg/injection, schedule: Q01DX005 (ip), vehicle: saline) was 97 % of control and the T/C (dose: 200.0 mg/kg/injection, schedule: Q01DX005 (ip), vehicle: saline) was 98 % of control.

`CCCCNCCC(O)c1cc2ccc(C(F)(F)F)cc2c2cc(C(F)(F)F)ccc12` (configuration not stated) was tested, and the T/C [20] was 86 % of control and the T/C [21] was 91 % of control.

With `Nc1ccn(C2CC(N)C(CO)O2)c(=O)n1` (configuration not stated) the T/C (dose: 12.5 mg/kg/injection, schedule: Q01DX005 (ip), vehicle: water) was 120 % of control, the T/C (dose: 25.0 mg/kg/injection, schedule: Q01DX005 (ip), vehicle: water) was 118 % of control and 123 % of control and the T/C (dose: 200.0 mg/kg/injection, schedule: Q01DX005 (ip), vehicle: water) was 153 % of control and 154 % of control.

`N#Cc1c(-c2ccc(Cl)cc2)c(-c2ccc(Cl)cc2)n[nH]c1=O` was tested, and the T/C [3] was 100 % of control, the T/C [4] was 99 % of control and the T/C [5] was 104 % of control.

For `CC1=CC2C(c3ccccc3)Nc3ccccc3N2C1=O` (configuration not stated), the T/C [11] was 94 % of control, the T/C [22] was 100 % of control and the T/C [23] was 94 % of control.

For `ClC1C(Cl)C(Cl)C(Cl)C(Cl)C1Cl` (configuration not stated), the T/C [16] was 104 % of control and 113 % of control, the T/C [17] was 104 % of control and 97 % of control and the T/C (dose: 25.0 mg/kg/injection, schedule: Q01DX009 (ip), vehicle: saline with Tween-80) was 100 % of control and 104 % of control. For the same molecule, the T/C [18] was 105 % of control and 98 % of control, the T/C [20] was 100 % of control and 108 % of control and the T/C [12] was 100 % of control. For the same molecule, the T/C [19] was 89 % of control and 95 % of control, the T/C [21] was 100 % of control and 108 % of control and the T/C [13] was 100 % of control. For the same molecule, the T/C (dose: 150.0 mg/kg/injection, schedule: Q01DX009 (ip), vehicle: Klucel (hydroxypropylcellulose) (HPC)) was 99 % of control and 87 % of control, the T/C [24] was 100 % of control and 110 % of control and the T/C [14] was 90 % of control. For the same molecule, the T/C (dose: 400.0 mg/kg/injection, schedule: Q01DX009 (ip), vehicle: saline with Tween-80) was 101 % of control and 114 % of control.

With `CSCCC(NC(=O)CNC(=O)OCc1ccccc1)C(=O)O` (configuration not stated) the T/C [17] was 94 % of control, the T/C [18] was 95 % of control and the T/C [19] was 100 % of control. The T/C (dose: 200.0 mg/kg/injection, schedule: Q01DX009 (ip), vehicle: Klucel (hydroxypropylcellulose) (HPC)) was 93 % of control and the T/C (dose: 400.0 mg/kg/injection, schedule: Q01DX009 (ip), vehicle: Klucel (hydroxypropylcellulose) (HPC)) was 87 % of control.

With `O=C(O)c1cccc2c1Cc1cc([N+](=O)[O-])ccc1-2` the T/C [3] was 95 % of control and the T/C [4] was 103 % of control.

`CCOC(=O)c1n[nH]nc1Nc1cncc(Nc2n[nH]nc2C(=O)OCC)n1` was tested, and the T/C (dose: 60.0 mg/kg/injection, schedule: Q01DX005 (ip), vehicle: Klucel (hydroxypropylcellulose) (HPC)) was 102 % of control, the T/C (dose: 120.0 mg/kg/injection, schedule: Q01DX005 (ip), vehicle: Klucel (hydroxypropylcellulose) (HPC)) was 97 % of control and the T/C (dose: 240.0 mg/kg/injection, schedule: Q01DX005 (ip), vehicle: Klucel (hydroxypropylcellulose) (HPC)) was 97 % of control.

`Nc1ccc(-c2ccc(N)c(Cl)c2)cc1Cl` was tested, and the T/C [20] was 104 % of control, the T/C [21] was 114 % of control and the T/C [24] was 112 % of control.

`C=C=C(COC(C)=O)ON1CCC(C)CC1` was tested, and the T/C (dose: 9.0 mg/kg/injection, schedule: Q01DX001 (ip), vehicle: saline) was 102 % of control, the T/C (dose: 18.12 mg/kg/injection, schedule: Q01DX001 (ip), vehicle: saline) was 102 % of control and the T/C (dose: 36.25 mg/kg/injection, schedule: Q01DX001 (ip), vehicle: saline) was 100 % of control.

For `Oc1cccnc1CN1CCOCC1`, the T/C [11] was 101 % of control, the T/C [22] was 93 % of control and the T/C [23] was 101 % of control. The T/C (dose: 400.0 mg/kg/injection, schedule: Q01DX009 (ip), vehicle: saline) was 101 % of control.
